{
  "source": "patent US20250302816A1",
  "about": "“DISRUPTION OF EPITHELIAL BARRIERS FOR MOLECULAR DELIVERY ENHANCEMENT OR EXTRACTION OF EXTRACELLULAR FLUIDS” (The University of Nottingham, priority 2022, published 2025)",
  "key": {"[1]": {"test_system": "ZO-1", "assay": "ZO-1 immunostaining and confocal microscopy of Calu-3 cell layers", "type": "cell-based, human", "conditions": "200 μM, one hour, vs vehicle 0.15% DMSO", "procedure": "To visualise the effect of 3OC12-HSL and C7 PQS on tight junction integrity in Calu-3 cell layers, ZO-1, immunostaining and confocal microscopy was performed on cell layers treated by 200 μM 3OC12-HSL and C7 PQS and control (0.15% DMSO in HBSS) for one hour. Confluent cell monolayers were washed with PBS and fixed in 4% paraformaldehyde in PBS for approximately 10 min at room temperature. Cells were then washed 3 times with PBS and permeabilised by incubating with Triton X-100 (0.1% v/v in PBS) for 10 min. Cells were then washed with PBS, followed by the application of 1% BSA/PBS for approximately 1 hour. Thereafter, BSA/PBS solution was aspirated and replaced with mouse, anti-human ZO-1 (primary) antibody, diluted in 1% BSA/PBS to a final concentration of 100 μg/ml. Cell samples were incubated with the primary antibody for 2 hours. The primary antibody solution was then removed and cells washed with PBS (5 times). FITC-labelled goat, anti-mouse (secondary) antibody, diluted according to manufacturer's instructions in 1% BSA/PBS was then applied to the cells for 1 hour. The secondary antibody solution was then aspirated and cells washed with PBS three times. […]"}, "[2]": {"test_system": "human primary lung epithelium", "assay": "Human primary lung epithelium, air-liquid interface culture: TEER, FD4 and mAb delivery", "type": "cell-based"}, "[3]": {"test_system": "all three cell lines", "assay": "MTS metabolic activity in all three cell lines", "type": "cell-based, human", "conditions": "200 μM", "procedure": "The viability of Calu-3 cells was determined by a chromogenic MTS method based on the measuring of mitochondrial respiration, assessed by the reduction of 3-(4,5-dimethylthiazol-2-yl)-5-(3-carboxymethoxyphenyl)-2-(4-sulfophenyl)-2H-tetrazolium to formazan. Calu-3 cells were cultured in a 96-well plate (CellTiter 96® Aqueous, Promega) at a density of 10^4 cells per well and incubated at 37° C., 5% CO2 for 24 hours. After 24 hours, the medium was replaced with 100 μl of test compounds dissolved in HBSS and then cells were incubated for 6 hours. HBSS and Triton X-100 (0.1% v/v in HBSS) were used as the negative and positive controls respectively. Bathing solutions were then aspirated and cells washed with PBS. Then culture medium (100 μl at 37° C.) plus MTS reagent (20 μl) were added into each well and cells were incubated for 2 hours. Absorbance at 492 was measured using a Dynex absorbance microplate reader (Dynex Technologies, USA) and converted into a percentage metabolic rate.\nNo significant reduction in cell metabolic activity was observed. Cell viability of >75% was retained in all cases."}, "[4]": {"test_system": "diabetic rat model with increased retinal permeability", "assay": "Topical eye administration in diabetic rat model with increased vascular permeability", "type": "in vivo, Norway Brown rats", "conditions": "topical co-application vs Bevacizumab alone"}, "[5]": {"test_system": "Caco-2 cell layers", "type": "cell-based, human", "conditions": "3OC12-HSL 200 μM", "procedure": "FIG. 3: Macromolecular therapeutics transported across Caco-2 cell layers in the absence (dashed line) and presence (line) of 3OC12-HSL transported into the basolateral chamber over a period of five hours. Permeability experiments were initiated by applying 0.5 ml of the test solutions (250 μg/ml Aflibercept/Bevacizumab/or Doxorubicin diluted in HBSS/HEPES) to the apical side of the cells (donor compartment of the Transwell) with or without 3OC12-HSL (200 μM). Drug permeability was determined by sampling the basolateral solution at regular time intervals. Data points are expressed as means±SEM, derived from three replicates in triplicate. p values of <0.05 were considered statistically significant. *, ** and *** denote p<0.05, p<0.01 and p<0.001, respectively.\nCalu-3 cells obtained from American Type Culture Collection, USA were cultured using Dulbecco's Modified Eagle Medium (DMEM) supplemented with penicillin (100 U/mL), streptomycin (0.1 mg/mL), amphotericin (0.25 μg/mL), non-essential amino acids (NEM, 1%) and Fetal Bovine Serum (FBS, 10% v/v, Sigma-Aldrich, UK). The human-derived RPE cell line ARPE-19 was obtained from American Type Culture Collection. […]\nThree polarised epithelial in-vitro tissue models, including lung epithelium (Calu-3), retinal pigment epithelium (ARPE-19) and intestinal epithelial (Caco-2) were used to study the efficiency of 200 μM 3OC12-HSL as a paracellular permeability enhancer for three different drugs: bevacizumab, aflibercept and doxorubicin (applied concentrations 250 μg/mL). The amount of drugs transported was determined via the conversion of fluorescence intensity to amount (μg or ng), using calibration curves constructed via serial standard dilutions. […]\nPermeability experiments were initiated by applying 0.5 mL of the test solutions to the apical side of the cells (donor compartment of the Transwell®). […] Drug permeability was determined by sampling the basolateral solution at regular time intervals. […]"}},
  "data": [
    {"molecule": "CCCCCCCCCC(=O)CC(=O)N[C@H]1CCOC1=O", "note": "[Agent 3OC12-HSL, N-(3-oxododecanoyl) homoserine lactone]", "values": [
      {"measurement": "ZO-1 distribution at tight junctions", "setting": "[1]", "value": "considerable dislocation of ZO-1 proteins"},
      {"measurement": "TEER (electrical resistance) upon agent exposure", "setting": "[2]", "value": "temporarily reduced"},
      {"measurement": "mAb (Mepolizumab) delivery upon agent exposure", "setting": "[2]", "value": "increased"},
      {"measurement": "metabolic activity compared to the negative control", "setting": "[3]", "value": "did not change the metabolic activity"},
      {"measurement": "delivery of Bevacizumab into the posterior chamber of rat eyes (confocal images)", "setting": "[4]", "value": "significantly enhance"},
      {"measurement": "enhancement of aflibercept transport by 3OC12-HSL", "setting": "[5]; aflibercept 250 μg/ml", "value": 11, "unit": "fold"},
      {"measurement": "enhancement of bevacizumab transport by 3OC12-HSL", "setting": "[5]; bevacizumab 250 μg/ml", "value": 8, "unit": "fold"},
      {"measurement": "enhancement of doxorubicin transport by 3OC12-HSL", "setting": "[5]; doxorubicin 250 μg/ml, after 5 hours", "value": 19, "unit": "fold"}
    ]}
  ]
}
